Experimental data reported in patent US20200109126A1 (priority 2017, published 2020).
“Also recorded” adds a separate entry of the source.

Experiments:
320 non-olfactory GPCRs = test: PRESTO-Tango GPCRome β-arrestin recruitment screen for off-target agonism; assay type: cell-based; conditions: 10 μM, hits re-tested in full dose-response
Excerpt: Potential positive receptor hits were defined as those that increase the relative luminescence value by two fold. […] A number of false positive hits were discounted by this approach.

C57BL/6J mice [1] = test: Formalin injection assay; conditions: PZM21 40 mg/kg
Procedure: Analgesia to formalin injection was carried out as described previously^66. Mice were first habituated for 20 minutes to the testing environment which included a home cage without bedding, food, and water. […] This was followed by injection of 20 μL of 1% formalin in 0.9% saline under the skin of the dorsal surface of the right hindpaw. Animals were returned to their home cage and behavioral responses were recorded for one hour. Nociception was estimated by measuring the cumulative time spent by animals licking the formalin-injected paw. As opioids classically display two phases of analgesic action, nociceptive behavior was measured during both the early phase (0 to 5 minutes) and the late phase (20 to 30 minutes).

δOR = biological target: T1, δOR (Homo sapiens, UniProt P41143); test: Gi/o Glosensor assay at δOR; assay type: cell-based; conditions: ND = not detectable
T1 construct: NIMH Psychoactive Drug Screening Program (PDSP)

C57BL/6J mice [2] = test: Cataleptic effect (bar test); conditions: PZM21 20 mg/kg
Procedure: Drug induced catalepsy was measured in mice using the bar test, which includes a horizontally placed 3 mm diameter wooden bar fixed 4 cm above the floor. […] To measure catalepsy, both forepaws were gently placed on the bar and the length of time during which each mouse remained in the initial position was measured. The effect was measured at 15, 30 and 90 minutes after drug injection. Maximum cut-off time for each challenge was 90 seconds.

μOR [3] = biological target: T2, μOR (Homo sapiens, UniProt P35372); test: β-arrestin2 recruitment, PathHunter assay; assay type: cell-based
μOR [4] = biological target: T2, μOR; test: cell-based; assay type: cell-based
C57BL/6J mice [5] = test: Hot-plate analgesia
μOR [6] = biological target: T2, μOR; test: β-arrestin recruitment at μOR with GRK2 co-expression; assay type: cell-based
μOR [7] = biological target: T2, μOR; test: Receptor internalization (PathHunter GPCR internalization assay); assay type: cell-based; conditions: maximal concentration
[8] = Pharmacokinetics of PZM21 (serum and brain); assay type: in vivo, mouse; conditions: 20 mg/kg subcutaneous
Procedure: Studies were performed by the Preclinical Therapeutics Core and the Drug Studies Unit at the University of California San Francisco.

μOR [9] = biological target: T2, μOR; test: β-arrestin recruitment at μOR without GRK2; assay type: cell-based

T2 sequence (P35372 whole entry): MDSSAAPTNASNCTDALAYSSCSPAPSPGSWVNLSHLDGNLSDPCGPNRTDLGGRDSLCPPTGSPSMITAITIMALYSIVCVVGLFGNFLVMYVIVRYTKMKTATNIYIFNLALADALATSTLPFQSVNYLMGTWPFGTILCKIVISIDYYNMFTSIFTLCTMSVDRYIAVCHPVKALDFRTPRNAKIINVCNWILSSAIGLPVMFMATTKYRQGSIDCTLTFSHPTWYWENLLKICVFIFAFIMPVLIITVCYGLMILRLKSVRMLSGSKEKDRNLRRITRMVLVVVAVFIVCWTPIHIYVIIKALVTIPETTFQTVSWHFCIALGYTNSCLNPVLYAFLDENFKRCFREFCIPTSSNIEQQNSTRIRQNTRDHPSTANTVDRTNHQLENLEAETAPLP
T1 sequence (P41143 whole entry): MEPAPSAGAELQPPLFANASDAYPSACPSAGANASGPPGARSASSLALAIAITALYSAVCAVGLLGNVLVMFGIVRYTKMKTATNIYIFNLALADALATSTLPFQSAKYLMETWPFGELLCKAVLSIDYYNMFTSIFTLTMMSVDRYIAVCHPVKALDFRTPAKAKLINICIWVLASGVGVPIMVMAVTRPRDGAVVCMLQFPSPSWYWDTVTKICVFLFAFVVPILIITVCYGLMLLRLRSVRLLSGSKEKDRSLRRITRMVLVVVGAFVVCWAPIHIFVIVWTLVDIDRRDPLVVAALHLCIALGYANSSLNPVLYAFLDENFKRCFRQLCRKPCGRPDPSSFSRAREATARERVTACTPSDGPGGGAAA

C[C@@H](Cc1ccsc1)NC(=O)NC[C@H](Cc1ccc(O)cc1)N(C)C [PZM21, 1-[(S)-2-(Dimethylamino)-3-(4-hydroxyphenyl)propyl]-3-((S)-1-(thiophen-3-yl)propan-2-yl)urea]
agonism against 316 other GPCRs (320 non-olfactory GPCRs): no potent activity was confirmed
activity in formalin injection nociception assay (C57BL/6J mice [1]): active
EC50 (δOR): 1900 nM
cataleptic behavior (C57BL/6J mice [2]): does not induce cataleptic behavior
β-arrestin2 recruitment (in words) (μOR [3]): undetectable; also recorded: minimal recruitment of β-arrestin2; also recorded: no detectable
Gi/o activation, μOR agonist activity (in words) (μOR [4]): robust μOR agonist activity
duration of analgesia (C57BL/6J mice [5]; hot plate): up to 180 minutes
percent maximal possible effect (% MPE) (C57BL/6J mice [5]; hot plate, highest dose of drug tested, 15 minutes after administration): 87%
analgesia in hot-plate assay (in words) (C57BL/6J mice [5]; mouse, subcutaneous): dose-dependent analgesia
arrestin recruitment with over-expressed GRK2 (in words) (μOR [6]): weak arrestin recruitment efficacy compared to DAMGO and even to morphine
signaling bias (μOR [6]; operational model, DAMGO as reference): undistinguishable from TRV130
μOR internalization (μOR [7]): minimal level of μOR internalization compared to DAMGO and morphine
blood brain barrier penetration [8]: substantial fraction of PZM21 crosses the blood brain barrier
Arrestin Emax % DAMGO (μOR [9]): 15 % DAMGO
β-arrestin2 recruitment in the absence of GRK2 (in words) (μOR [9]): no β-arrestin2 recruitment
